The source of these data is a melting point compilation (Tetko et al.; mined from patent text by program, amines drawn as free bases though some values may be those of a salt).

As usually defined, the melting point is the temperature, or range, at which the solid turns liquid. Take `CC(C)(C)OC(=O)N(Cc1ccc(C2CCCCC2)cc1)c1nc(Oc2ccc(F)cc2)c2ncn(CC(=O)O)c2n1`: the melting point fell in the range of 119 to 133 °C.

As for `CC(C)(C)c1ccc(Sc2ccc([N+](=O)[O-])cc2)cc1`, the melting point was 65 to 66 °C.

Compound `CCc1cc(CCCc2ccc(CO)c(CO)c2)ccc1O` had a melting point of 82 °C.

In turn, `O=C(O)c1cccc(-n2cc(-c3ccccc3F)cn2)c1` showed a melting point of 225 to 226 °C.

On to `COC(=O)c1c(Oc2cccc(C)c2C)nn(C(=O)OC)c1C`, for which the melting point came to 115 °C.

`CC(=O)OCCC1Cc2c(C)c(OCc3ccccc3)c(C)c(C)c2O1` (racemic) showed a melting point of 80 to 82 °C.

Consider `O=S(=O)(c1ccccc1)N1CCC(C(c2ccc(F)cc2)c2ccc(F)cc2)CC1`, for which the melting point was in the range of 180 to 184 °C.

The compound `Cc1cc(CCCCCOc2c(C)cc(-c3nc(C)no3)cc2C)on1` came in with a melting point of 54 to 56 °C.

As for `CN1Cc2ccccc2[C@H]2c3cccc4c3[C@H](CN4)C[C@@H]21` (relative stereo), the melting point was 184 to 185 °C.

`CCOC(=O)c1cn(C2CC2)c2cc(Br)c(F)c(C)c2c1=O` had a melting point of 195 to 197 °C.

On to `C=CCOc1ccc(C)c2c1C(C)(C)C(=O)N2`, for which the melting point lay within 153 to 155 °C.

For the compound `C#Cc1cccc(Nc2ncnc3ccc(NC(=O)c4ccc(C(=O)Nc5ccccc5N)nc4)cc23)c1`, the melting point lay in the range of 213 to 216 °C.

In turn, `CC(C)(C)OC(=O)c1ccccc1NC(=O)CN1C(=O)c2ccccc2C1=O` registered a melting point of 159 °C.

As for `N=C(N)N1CCC2c3ccccc3CN21` (centres undefined), the melting point fell in the range of 233 to 234 °C.

In the case of `O=CN(O)C(CCCO)CS(=O)(=O)c1ccc(-c2ccc(Cl)cc2)cc1` (centres undefined), the melting point was determined as 160 °C.

Take `Nc1ccc(S(=O)(=O)CCCO)cc1`: the melting point lay in the range of 99 to 102 °C.

Turning to `Cc1ccc(C)c(C(=O)c2cc(Cl)ccc2Cl)c1`, the melting point is 58 to 61 °C.

`CCc1ccc(-c2ccc(Cl)cc2)cc1`: the melting point came to 103 °C.

`COc1ccccc1NC(=O)c1ccc([N+](=O)[O-])cc1`: the melting point is 146 to 147 °C.

For `CSc1cc2c(cc1C(F)(F)F)N(C(=O)Nc1cccc(C(=O)CCCN(C)C)c1)CC2`, the melting point fell in the range of 178 to 180 °C.

For the compound `COC(=O)CCc1nc(C=O)ccc1O`, the melting point was in the range of 92 to 95 °C.

`CC(=O)NC1CCN(c2c(F)cc([N+](=O)[O-])c(F)c2CO)C1` (centres undefined) gave a melting point of 142 to 144 °C.

Turning to `CSC1=NC(=O)C(=Cc2cc(C(C)(C)C)c(O)c(C(C)(C)C)c2)N1`, the melting point is 248 to 249 °C.

As for `CC(=O)NC(C(=O)O)C(c1ccc(F)cc1)c1ccc(F)cc1` (centres undefined), the melting point came to 187 °C.

Turning to `CCCCN(CCCC)CCCOc1ccc(S(=O)(=O)c2ccccc2CC)cc1`, the melting point came out at 80 °C.

`O=C(c1ccco1)c1cnn2c(-c3cccnc3)ccnc12` returned a melting point of 228 to 229 °C.

The compound `Cc1cnc2c(S(=O)(=O)N[C@@H](CCCc3cn(C(c4ccccc4)(c4ccccc4)c4ccccc4)cn3)C(=O)OC(C)(C)C)cccc2c1` had a melting point of 56 °C.

Consider `CCCOC(C)c1ccc(-c2ccc(C(=O)O)cc2)cc1` (single isomer, unassigned; (+)), for which the melting point amounted to 172 °C.

As to `O=C1N(Cc2ccc(C(F)(F)F)o2)c2cccc(-c3cncnc3)c2C12COc1cc3c(cc12)CCO3` (centres undefined), the melting point is 263 to 266 °C.

In the case of `Cc1ccc(C)c2c(OCCNC(=O)OC(C)(C)C)noc12`, the melting point was in the range of 78 to 79 °C.

Compound `CN(C)Cc1ccc(Cl)cc1C(=O)c1ccccc1F` had a melting point of 91 to 92 °C.

For `COc1cc(CC(=O)NCCOc2ccc(C(=O)O)cc2OC)ccc1NC(=O)Nc1ccccc1C`, the melting point is 180 to 181 °C.

`Cc1c(O)c(=O)[nH]c2ccccc2c1=O`: the melting point came out at 252 °C.

Take `Nc1nc(NC2CCCCC2)nc2c1ncn2C1C=CCCC1` (centres undefined): the melting point was 108 to 111 °C.

For `COc1cc(CCC(=O)CC(=O)c2ccccc2)ccc1O`, the melting point lay in the range of 76 to 78 °C.

Regarding `CC(CS(=O)(=O)c1ccccc1)C1CCC2C3CC=C4CC(O)CC(O)C4(C)C3CCC12C` (centres undefined), the melting point was 214 °C.

In turn, `O=S1(=O)CS(=O)(=O)OCO1` returned a melting point of 146 °C.

As to `CC1=C(C(=O)OC(C)C)C(c2cccc([N+](=O)[O-])c2)N(C(=O)N(C)C)C(=O)N1` (centres undefined), the melting point was in the range of 165 to 166 °C.

`O=C(CCCCl)N(c1ccccc1)c1ccccc1` gave a melting point of 78 to 79 °C.

In turn, `CCOCc1nc2c(N)nc3cc(-c4ccccc4)ccc3c2n1CC1CCNCC1` registered a melting point of 142 to 143 °C.

On to `COc1ccc(-c2cc(Oc3c(C)cc(C)cc3C)nc(C)n2)cc1OC`, for which the melting point lay in the range of 122 to 125 °C.

Compound `CCOCCNS(=O)(=O)NC(=O)OCc1ccc(OCCOC)cc1Oc1ncc(C(F)(F)F)cc1Cl` registered a melting point of 142 to 143 °C.

In the case of `CCCN1c2ccc3c(c2CC1C(N)=O)CC(N)CC3` (single isomer, unassigned; (+)), the melting point was determined as 230 °C.

In the case of `COC(=C1C2CC3CC1CC(O)(C3)C2)c1cccc(O)c1`, the melting point lay in the range of 171 to 172 °C.

The compound `CN(C)C(=O)N(C)C(=O)Nc1ccc(Cl)cc1` showed a melting point of 94.5 to 95 °C.

`Cc1cc(C(=O)CCl)c(N)cc1Cl` registered a melting point of 129 to 130 °C.

The compound `O=c1[nH]c2sccc2c2c([N+](=O)[O-])cccc12` returned a melting point of 255 to 258 °C.

With `Cc1nc(-n2cnn(Cc3ccc(F)cc3)c2=O)sc1C(=O)NCc1ncco1`, the melting point lay within 152 to 153 °C.

The compound `N#Cc1c(N)nn(-c2c(Cl)cc(C(F)(F)F)cc2Cl)c1N` displayed a melting point of 208 to 210 °C.

In the case of `NC(Cc1ccccc1)c1ccc(Cl)cc1` (centres undefined), the melting point fell in the range of 35 to 36 °C.

For `Cc1oc(C2CCCCC2)nc1C(=O)O`, the melting point is 173 to 174 °C.

For the compound `COc1ccc2c(c1)-c1ncc(C(=O)O)c(=O)n1CC2`, the melting point lay within 237 to 239 °C.

The compound `CC(C)(C)Oc1ccc(C[C@H](NC(=O)OCc2ccccc2)C(=O)C=[N+]=[N-])cc1` displayed a melting point of 80 to 82 °C.

`Cc1cc(-c2ccc(S(C)(=O)=O)cc2)n(-c2ccc(F)cc2)c1F` yielded a melting point of 109 to 110 °C.

With `COc1cc2c(c(OC)c1OC)-c1ccc(OC(=O)N3CCC(N4CCCCC4)CC3)cc1C(NC(C)=O)CC2` (centres undefined), the melting point was 168 to 175 °C.

As for `CC(Cc1ccc(CCNS(=O)(=O)c2ccccc2)cc1)C(=O)O` (centres undefined), the melting point lay within 113 to 115 °C.

`COCOc1cc(OC)c(OCOC)c(CCO)c1OC` registered a melting point of 121 to 123 °C.

Compound `O=C(O)CCCSc1ccccc1O` gave a melting point of 77 to 78 °C.

As to `CN1C(=O)c2c(-c3ccccc3)noc2CC1c1ccccc1` (centres undefined), the melting point lay in the range of 108 to 111 °C.

As to `Cc1ccnc2nc(NS(=O)(=O)c3ccccc3Cl)nn12`, the melting point lay in the range of 268 to 269 °C.

On to `CCc1cc(/C=C/[N+](=O)[O-])ccc1N=C1SCC2(CCCC2)N1C1CCCC1`, for which the melting point fell in the range of 141 to 142 °C.

`COC(=O)[C@@H]1[C@@H](C(=O)O)[C@H]2C=C[C@@H]1C2` displayed a melting point of 78 to 79 °C.

`CCCCCCCCCCCCCCCCCCS(=O)(=O)c1ccc(C)cc1` yielded a melting point of 79 to 80 °C.

In turn, `COc1cc([N+](=O)[O-])c2ncccc2c1Cl` showed a melting point of 204 to 206 °C.

`COC(=O)NNC(=S)Cc1cc(OC)c(OC)c(OC)c1` yielded a melting point of 134 °C.

`CCCc1c(OCCCSc2nc3ccccc3[nH]2)ccc(C(C)=O)c1O` had a melting point of 149 to 150 °C.

Take `O=C(CNc1c(C(=O)O)[nH]c2cc(Cl)cc(Cl)c12)c1ccccc1Cc1ccccc1`: the melting point was in the range of 234 to 235 °C.

For `CCN=c1[nH]c2ccccc2c2nc(-c3ccco3)nn12`, the melting point was 133 to 135 °C.

For the compound `O=C(CN1CCCC1=O)N1CCN(C(=O)CN2CC(c3ccc(Cl)cc3)CC2=O)CC1` (centres undefined), the melting point is 224 to 226 °C.

`CC(=O)NN=C(C)c1ccc2nnn(Cc3ccc4ncccc4c3)c2n1` had a melting point of 249 to 251 °C.

`CC1=C(C(=O)N[C@H](C)c2ccccc2)[C@H](c2ccc(F)cc2Cl)N=C(c2nccs2)N1`: the melting point was in the range of 224 to 226 °C.

`COc1ccc(CC(=O)NC(NC(=NC#N)Nc2ccccc2Cl)C(C)(C)C)cc1OC` (centres undefined) displayed a melting point of 135 to 136 °C.

`CC1CN(Cc2ccccc2)CC1=NO` (centres undefined) registered a melting point of 85 to 94 °C.

Regarding `CC(C)(O)C(O)c1cnc(C2OCCO2)s1` (centres undefined), the melting point is 130 to 131 °C.

With `O=c1cc(NCCCN2CCN(c3cccc4c3OCCO4)CC2)cn[nH]1`, the melting point was in the range of 158 to 160 °C.

As for `Nc1nnc(-c2ccc(CN3CCCCCC3)s2)s1`, the melting point was in the range of 156 to 157 °C.

For `COC(=O)[C@@H]1Cc2ccccc2N1C(=O)[C@H](CC(=O)OCc1ccccc1)NC(=O)C(F)(F)F`, the melting point was 88 to 90 °C.

`Cc1oncc1C(=O)c1ccc(S(C)=O)c(Cl)c1Cl` (centres undefined) gave a melting point of 125 to 126 °C.

`COC(=O)CCCC(=O)c1ccccc1C=CBr`: the melting point lay in the range of 52 to 55 °C.

On to `O=C(NCc1ccccc1O)c1[nH]c2ccc(Cl)cc2c1S(=O)(=O)c1ccccc1`, for which the melting point lay within 243 to 244 °C.

For the compound `N#CNC(=NCCO[N+](=O)[O-])c1cncc(N)c1`, the melting point turned out to be 121 °C.

Compound `CC(CCCC(=NO)C(=O)O)(c1ccc(OCc2ccc3ccccc3n2)cc1)c1ccc(OCc2ccc3ccccc3n2)cc1` displayed a melting point of 78 to 80 °C.

Compound `C=CCOc1ccc2oc(C(=O)c3ccc(F)cc3)c(C)c2c1` displayed a melting point of 80 to 82 °C.

`C=CCn1c(C)nc2c3c(c(C(=O)OC)cc21)C(=O)CC1(Cc2ccccc2C1)N3` yielded a melting point of 216 to 217 °C.

In turn, `Cc1cc2cc(NC(=O)NC34CC5CC(CC(C5)C3)C4)ccc2[nH]1` registered a melting point of 146 to 152 °C.

In turn, `COCOc1ccc(N(C)S(=O)(=O)c2ccc(C)cc2)c([N+](=O)[O-])c1` registered a melting point of 110 to 112 °C.

In turn, `O=C1c2ccccc2CN1C1CCN(c2ccc(Cc3ccccc3)cc2)CC1` displayed a melting point of 151 to 155 °C.

Consider `CC(C)(C)OC(=O)NCCNC(=O)c1cc(Cl)ccn1`, for which the melting point is 120 to 123 °C.

Compound `CCOC(=O)C(C(=O)OCC)C(=O)c1ccc2oc3ncccc3c(=O)c2c1` gave a melting point of 137 to 138 °C.
